Patent US6747050B1, “Isoxazoline derivative and a process for the preparation thereof” (LG Chem Investment Ltd., priority 1999, dated 2004)
pIC50: −log10 of the molar value.

Experiments:
[1] = tested on: IL-1β production in human peripheral lymphocytes; test: IL-1β production in LPS-stimulated human peripheral lymphocytes (intracellular Caspase-1 inhibition); format: cell-based; settings: Lymphocyte, 10 ng/ml LPS, 12 hours, read-out: CIC50 (IL-1β production)
Description: Inhibitory activity for Caspase-1 was determined by screening the effects of the compounds on the IL-1β production in the periphery lymphocytes stimulated with LPS. Briefly, 500,000 cells/ml of human peripheral lymphocytes were treated with the test compounds at various concentrations for 2 hours and then with 10 ng/ml of LPS. After incubating the cells for 12 hours, the supernatant samples from the media were analysed by immunoantibody analysis (Amersham) in which 100 ng/well of human IL-1β antibody is coated (Range: CIC50: 0.1˜10 μM).

[2] = tested on: hepatocytes in ConA-treated mouse liver; test: Con A-treated mouse liver: histologic examination and TUNEL detection of apoptosis; format: in vivo, mice; settings: 4, 20, 100 mg/kg
Description: The present inventors estimated the prevalence of apoptotic cells in the mouse liver to certify the apoptosis-blocking effect of the compound of the present invention specifically in hepatocytes. Mice were treated ConA in the presence or absence of various dosages of compound 33 [A and G: ConA and vehicle treatment, B and H: ConA and compound 33 4 mg/kg treatment, C and I: ConA and compound 33 20 mg/kg treatment, D and J: ConA and compound 33 100 mg/kg treatment] to prepare frozen liver sections. Also, mice were treated with PBS and vehicle (E and K), or PBS and compound 33 100 mg/kg (F and L) to prepare frozen liver sections. Freshly excised mouse liver was immediately immersed in 25% sucrose solution at 4° C. for overnight, then frozen in liquid nitrogen, and cryosectioned into 4 μm.
For histological examination, liver sections were fixed in 1% buffered paraformaldehyde and stained with hematoxilin & eosin (FIGS. 6A to F). To detect apoptotic cells in liver, frozen liver was stained using an ApopTag in situ apoptosis peroxidase detection kit (terminal deoxynucleotidyl transferase-mediated dUTP nick end labeling: TUNEL assay) (Oncor, Gaithersburg, Md.) and DAKO liquid DAB (DAKO, Carpinteria, Calif.)(FIGS. 6G to L). Staining was conducted according to manufacturer's instruction After completion of staining, the samples were observed under an optical microscope. […]

PARP cleavage = test: Western blotting of PARP cleavage in liver lysate of Con A-treated mice; format: in vivo; settings: various doses
Description: In this experiment, the cleavage of PARP was identified by the appearance on Western blot analysis of an 85 kda-cleavage product in hepatic cell lysate obtained from mice treated with Con A and various doses of the compound of formula (I).
Freshly harvested livers treated with Con A or PBS together with various doses of compound 33 were rinsed in cold PBS and homogenized into three volumes per weight of cold PBS containing 1% Nonidet P-40, 0.1% SDS, 1 mM PMSF, and protease inhibitor cocktail tablet Complete (Boehnger Mannheim, used according to manufacturer's instruction). The homogenates were incubated on ice for 30 min. Samples were then centrifuged at 16,000×g for 30 min at 4° C. Supernatants were transferred to fresh tubes and centrifuged for additional 30 min. Harvested lysates were precleared by incubating with protein G-sepharose (Pharmacia, Uppsala, Sweden) at 4° C. for overnight, gently shaking. Supernatants were harvested by centrifugation at 1000×g for 30 sec. at 4° C. and separated on 7% SDS-polyacrylamide gel and transferred to nitrocellulose membrane. Blots were blocked for 1 hr at room temperature in PBS containing 5% skimmed milk and 0.1% Tween 20 under gentle shaking. Membranes were then incubated overnight with 1:1000 diluted monoclonal anti-PARP antibody (Pharmingen) under gentle shaking. […]

[3] = tested on: Con A-induced hepatitis in Balb/c mice; test: Con A-induced acute hepatitis mice: plasma aminotransferase activity; format: in vivo
Description: Female 6-week-old Balb/c mice (Charles River Laboratory, Osaka, Japan) were kept at 22° C. and 55% relative humidity in a 12-h day/night rhythm with free access to food and water. Con A was dissolved in pyrogen-free saline to a concentration of 2.5 mg/ml and was injected via the tail vein in an amount of 20 mg/kg based on Con A. The animals were i.p. injected twice with compound 33 dissolved into a vehicle which consists of olive oil and 10% DMSO, or a vehicle alone, at 1 hr before and 4 h after Con A injection Animals were sacrificed by cervical dislocation at 24 hrs after Con A injection to obtain liver and blood samples.
Blood samples obtained at step 1 were collected at 24 h after Con A injection Plasma AST and ALT activity were measured using Autokit (Youngdong Pharmaceutical Co., Seoul, Korea) following manufacturer's instruction.

[4] = tested on: Recombinant human caspase-1, -2, -3, -4, -6, -7, -8 and -9; test: Inhibition of caspase activity in cell free system (chromogenic pNA substrates); format: biochemical; settings: 100 μM compound
Description: The pharmacological efficacy of the compound according to the present invention was evaluated by the following experiments. Con A was purchased from Boehringer Mannheim GmbH (Mannheim, Germany). Peptide-based substrates of caspases (Ac-YVAD-pNA for caspase-1, Ac-VDVAD for caspase-2, Ac-DEVD-pNA for caspase-3, 7, 8, and 9, Ac-LEVD-pNA for caspase-4, and Ac-VEID-pNA for caspase-6) and peptide-based caspase inhibitors (Ac-DEVD-fmk, z-VAD-CHO) were purchased from Alexis Co. (San Diego, Calif.). Ac-DEVD-CHO and z-DEVD-cmk were purchased from Bachem; Anti Fas antibody was purchased from Oncor (Cat#A8050); WI38 cell was available from ATCC; IFN-gamma was purchased from LG Pharmaceuticals (Korea). All cell culture-media and supplements were purchased from Gibco BRL (Tsuen Wan, Hong Kong) unless mentioned otherwise. […]
Caspase activity was tested by mewing proteolytic cleavage of peptide-based chromogenic substrate by each enzyme. […] Aliquots of the enzyme (2 μl containing catalytic activity of 0.2 absorbance at 405 nm/h) were mixed with 150 μl of 200 μM chromogenic substrate in the presence or absence of 100 μM compound 33 m, 96-well plates. […] The absorbance of enzymatically released pNA was measured discontinuously at 405 nm in a microplate reader for 1 hr. The caspase activity was calculated from initial velocity (meant±SE)(n=4, in which n represents the number of repeated experiment).

[5] = tested on: caspase-3-like activity (Ac-DEVD-pNA); test: Caspase-3-like activity in TNFα/ActD-treated primary rat hepatocytes; format: cell-based; settings: 100 μM, 8 hrs
Description: (§1) Primary rat hepatocytes were isolated and purified from male Sprague-Dawley rats using a collagenase digestion method. The hepatocytes were purified over 30% Percoll gradient by centrifugation at 1,000×g for 10 min. at 4° C. […] The cells were plated on collagen-coated tissue culture plates at a density of 2×10^5 cells/well in 12-well plates for cell viability analysis or 5×10^6 cells/100 mm dish for enzyme assays. After 18 hrs preculture, the cells were treated with 2,000 units/ml TNFα and 0.2 μg/ml Actinomycin (ActD). Caspase activity and cell viability was determined by colorimetry using a caspase substrate Ac-DEVD-pNA and crystal violet staining method at 8 hrs and 12 hrs, respectively.

primary rat hepatocytes = test: Cell viability of TNFα/ActD-treated primary rat hepatocytes (crystal violet); format: cell-based; settings: added at different time points
Description: as §1

`CC(C)[C@H](NC(=O)CCc1ccccc1)C1=NOC(Cc2ccccc2)(C(=O)N[C@@H](CC(=O)O)C(=O)COC(=O)c2c(Cl)cccc2Cl)C1` (mixture of isomers) [Compound 32] was tested, and the pIC50 [1] was 5.00 to 7.00.

For `CC(C)[C@H](NC(=O)c1cccc2ccccc12)C1=NOC(Cc2ccccc2)(C(=O)N[C@@H](CC(=O)O)C(=O)COC(=O)c2c(Cl)cccc2Cl)C1` (stereo partly drawn) [Compound 33, (3S)-3-{3-[2-Methyl-(1S)-1-(1-naphthalenecarbonylamino)-propyl]-5-phenylmethyl-4,5-dihydro-isoxazole-5-carbonylamino}-4-keto-5-(2,6-dichlorobenzoyloxy)-pentanoic Acid], the “apoptotic lesions in liver” value [2] was “reduced dose-dependently”, the “cellular histology of liver” value [2] was “gradually recovered” and the “PARP cleavage (85 kDa-cleavage product) caused by Con A (FIG. 7)” value (PARP cleavage) was “gradually reduced”. The “AST and ALT difference to Con A/vehicle group” value ([3]; 4 mg/kg, second experiment (AST: p=0.2972, ALT: p=0.1378)) was “did not reached at statistically significant level”, the “AST and ALT activities compared with ConA/vehicle group” value ([3]; 20 mg/kg, second experiment (AST: p=0.0174, ALT: p=0.0011)) was “definitely reduced” and the “AST activity by the compound itself (no Con A)” value ([3]; first experiment, not statistically significant (p=0.1033)) was “slightly increased”. For the same compound, the “serum AST and ALT activity elevated by ConA (FIG. 4A, B)” value ([3]; i.p. twice, 1 hr before and 4 h after Con A, blood at 24 h) was “suppressed the elevated enzyme activities in a dose-dependent manner” and the “inhibition of recombinant human caspase activity (FIG. 1)” value [4] was “almost completely inhibited all tested caspase activity, only except for caspase 2”.

Z-VAD-fmk was tested, and the “caspase-3-like activity increased by TNFα/ActD (FIG. 15A)” value [5] was “not different” and the “cell viability with delayed addition, comparison with compound 33MP-Na” value (primary rat hepatocytes) was “No different results”.
